Experimental data taken from patent US8952150B2, “Prostaglandin transporter inhibitors and uses thereof” (Albert Einstein College of Medicine of Yeshiva University, priority 2009, dated 2015).

Biological target: rat PGT (Rattus norvegicus (Rat), UniProt Q00910)
Test: [3H]PGE2 uptake inhibition in MDCK cells stably transfected with rat PGT (percent inhibition and IC50)
Type: cell-based
Conditions: for Inh (% of Ctl) 0.5 μM: 0.5 μM compound; for Inh (% of Ctl) 0.5 μM / Inh (% of Ctl) 5 μM / Inh (% of Ctl) 1 μM / Inh (% of Ctl) 10 μM: inhibition of [3H]PGE2 uptake; for Inh (% of Ctl) 5 μM: 5 μM compound; for Inh (% of Ctl) 1 μM: 1 μM compound; for Inh (% of Ctl) 10 μM: 10 μM compound; for IC50: [3H]PGE2 uptake, MDCK cells stably transfected with rat PGT
Experimental: MDCK cells stably transfected with rat PGT (Endo et al., 2002) were seeded at 15-20% confluence on 24-well plates. The day on which the cells were seeded was considered day 1. PGE2 uptake experiments were conducted on day 4. All of the PGE2 uptake experiments were conducted at room temperature. On day 4, cells were washed twice with Waymouth buffer (135 mM NaCl, 13 mM H-Hepes, 13 mM Na-Hepes, 2.5 mM CaCl2, 1.2 mM MgCl2, 0.8 mM MgSO4, 5 mM KCl, and 28 mM D-glucose). Then 200 μL of Waymouth buffer containing [^3H]PGE2 (purchased from Perkin Elmer) was added to each well. At the designed time, the uptake of [^3H]PGE2 was stopped by aspiration of uptake buffer; this was followed by immediate washing twice with 500 μL of chilled Waymouth buffer. Cells were then lysed with 100 μL lysis buffer containing 0.25% SDS and 0.05 N NaOH. 1.5 mL of scintillation solution was added to each well, and intracellular [^3H]PGE2 was counted by MicroBeta Counter.
For preliminary testing of the compounds, 20 μL of Waymouth buffer containing the compound was added to each well; this was immediately followed by the addition of 180 μL of Waymouth buffer containing [^3H]PGE2. In each well, the total volume of uptake medium was 200 μL. Organic compounds were first dissolved in EtOH and then diluted in Waymouth buffer. The percent inhibition of [^3H]PGE2 uptake by compounds was calculated as [(uptakevehicle−uptakeinhibitor)÷(uptakevehicle)]×100.
IC50 was calculated by fitting an equation of y=m1−m1*(m0/(m2+m0)).

SMILES | Inh (% of Ctl) 0.5 μM | Inh (% of Ctl) 5 μM | Inh (% of Ctl) 1 μM | Inh (% of Ctl) 10 μM | IC50
COc1ccc(Nc2nc(NCCOCCOCCNC(=O)c3ccccc3)nc(Nc3ccccc3)n2)cc1 [compound 1] | 9.6 % of Ctl | 8.5 % of Ctl | – | – | –
O=C(NCCOCCOCCNc1nc(Nc2ccccc2)nc(Nc2ccc(OCc3ccccc3)cc2)n1)c1ccccc1 [compound 2] | 1.6 % of Ctl | 6.5 % of Ctl | – | – | –
O=C(NCCOCCOCCNc1nc(Cl)nc(Nc2ccc(OCc3ccccc3)cc2)n1)c1ccccc1 [compound 3] | 0.4 % of Ctl | 1.7 % of Ctl | – | – | –
O=C(NCCOCCOCCNc1nc(Nc2ccccc2)nc(Nc2ccc(O)cc2)n1)c1ccccc1 [compound 4] | 7.0 % of Ctl | 67.6 % of Ctl | 32.4 % of Ctl | 81.5 % of Ctl | 4.85 µM
CN(C)c1nc(NCCOCCOCCNC(=O)c2ccccc2)nc(Nc2ccc(OCc3ccccc3)cc2)n1 [compound 5] | 6.6 % of Ctl | 9.6 % of Ctl | – | – | –
O=C(NCCOCCOCCNc1nc(NCCO)nc(Nc2ccc(OCc3ccccc3)cc2)n1)c1ccccc1 [compound 6] | 3.6 % of Ctl | 11.7 % of Ctl | – | – | –
COCCOCCOCCNc1nc(NCCOCCOCCNC(=O)c2ccccc2)nc(Nc2ccc(OCc3ccccc3)cc2)n1 [compound 7] | 4.8 % of Ctl | 22.5 % of Ctl | – | – | –
O=C(O)C(F)(F)F.[N-]=[N+]=NCCOCCOCCNC(=O)c1ccc(Nc2nc(NCCOCCOCCNC(=O)c3ccccc3)nc(Nc3ccc(O)cc3)n2)cc1 [compound 8] | 52.3 % of Ctl | – | – | – | 0.224 µM
CN(C)c1nc(NCCOCCOCCNC(=O)c2ccccc2)nc(Nc2ccc(O)cc2)n1 [compound 9] | 1.3 % of Ctl | 18.8 % of Ctl | – | – | –
O=C(NCCOCCOCCNc1nc(NCCO)nc(Nc2ccc(O)cc2)n1)c1ccccc1 [compound 10] | 1.4 % of Ctl | 15.0 % of Ctl | – | – | –
COCCOCCOCCNc1nc(NCCOCCOCCNC(=O)c2ccccc2)nc(Nc2ccc(O)cc2)n1 [compound 11] | 11.4 % of Ctl | 29.9 % of Ctl | – | – | –
O=C(NCCOCCOCCNc1nc(O)nc(Nc2ccc(O)cc2)n1)c1ccccc1 [compound 12] | 2.8 % of Ctl | 4.7 % of Ctl | – | – | –
O=C(O)c1ccc(Nc2nc(NCCOCCOCCNC(=O)c3ccccc3)nc(Nc3ccc(O)cc3)n2)cc1 [compound 13] | 19.2 % of Ctl | 19.3 % of Ctl | – | – | –
CNC(=O)c1ccc(Nc2nc(NCCOCCOCCNC(=O)c3ccccc3)nc(Nc3ccc(O)cc3)n2)cc1 [compound 14] | 10.6 % of Ctl | 35.9 % of Ctl | – | – | –
CN(C)C(=O)c1ccc(Nc2nc(NCCOCCOCCNC(=O)c3ccccc3)nc(Nc3ccc(O)cc3)n2)cc1 [compound 15] | 15.0 % of Ctl | 16.6 % of Ctl | – | – | –
CC(C)(C)NC(=O)c1ccc(Nc2nc(NCCOCCOCCNC(=O)c3ccccc3)nc(Nc3ccc(O)cc3)n2)cc1 [compound 16] | 11.8 % of Ctl | 44.8 % of Ctl | – | – | 9.77 µM
COC(=O)c1ccc(Nc2nc(NCCOCCOCCNC(=O)c3ccccc3)nc(Nc3ccc(O)cc3)n2)cc1 [compound 17] | 22.0 % of Ctl | 55.6 % of Ctl | – | – | 6.57 µM
O=C(NCCOCCO)c1ccc(Nc2nc(NCCOCCOCCNC(=O)c3ccccc3)nc(Nc3ccc(O)cc3)n2)cc1 [compound 18] | 21.1 % of Ctl | 48.9 % of Ctl | – | – | –
COCCOCCOCCNC(=O)c1ccc(Nc2nc(NCCOCCOCCNC(=O)c3ccccc3)nc(Nc3ccc(O)cc3)n2)cc1 [compound 19] | 41.3 % of Ctl | 75.0 % of Ctl | – | – | –

SMILES | Inh (% of Ctl) 0.5 μM | Inh (% of Ctl) 5 μM | Inh (% of Ctl) 1 μM | Inh (% of Ctl) 10 μM | IC50
NC(=O)c1ccc(Nc2nc(NCCOCCOCCNC(=O)c3ccccc3)nc(Nc3ccc(O)cc3)n2)cc1 [compound 20] | 9.6 % of Ctl | 14.4 % of Ctl | – | – | –
O=C(NCCO)c1ccc(Nc2nc(NCCOCCOCCNC(=O)c3ccccc3)nc(Nc3ccc(O)cc3)n2)cc1 [compound 21] | 15.7 % of Ctl | 68.2 % of Ctl | – | – | –
O=C(NCCOCCOCCNc1nc(Nc2ccc(O)cc2)nc(Nc2ccc(C(=O)NCc3ccccc3)cc2)n1)c1ccccc1 [compound 22] | 62.4 % of Ctl | 88.1 % of Ctl | – | 95.5 % of Ctl | 0.0427 µM
COc1ccc(Nc2nc(NCCOCCOCCNC(=O)c3ccccc3)nc(Nc3ccc(O)cc3)n2)cc1 [compound 23] | 14.4 % of Ctl | 38.4 % of Ctl | – | – | –
O=C(NCCOCCOCCNc1nc(Nc2ccc(O)cc2)nc(Nc2ccc(N3CCOCC3)cc2)n1)c1ccccc1 [compound 24] | 1.7 % of Ctl | 9.2 % of Ctl | – | – | –
Nc1ccc(Nc2nc(NCCOCCOCCNC(=O)c3ccccc3)nc(Nc3ccc(O)cc3)n2)cc1 [compound 25] | 12.9 % of Ctl | 27.7 % of Ctl | – | – | –
O=C(NCCOCCOCCNc1nc(Nc2ccc(O)cc2)nc(Nc2ccc(CO)cc2)n1)c1ccccc1 [compound 26] | 2.6 % of Ctl | 35.2 % of Ctl | – | – | –
O=C(NCCOCCOCCNc1nc(Nc2ccc(O)cc2)nc(NC2CCCCC2)n1)c1ccccc1 [compound 27] | 28.2 % of Ctl | 53.8 % of Ctl | – | – | –
O=C(NCCOCCOCCNc1nc(Nc2ccc(O)cc2)nc(Nc2ccc(O)cc2)n1)c1ccccc1 [compound 28] | 2.4 % of Ctl | 56.5 % of Ctl | – | – | –
O=C(NCCOCCOCCNc1nc(Nc2ccccc2)nc(Nc2ccc(O)cc2)n1)c1ccncc1 [compound 29] | – | – | 15.9 % of Ctl | 49.6 % of Ctl | –
O=C(NCCOCCOCCNc1nc(Nc2ccccc2)nc(Nc2ccc(O)cc2)n1)c1ccc(F)cc1 [compound 30] | – | – | 26.1 % of Ctl | 78.25 % of Ctl | –
O=C(NCCOCCOCCNc1nc(Nc2ccccc2)nc(Nc2ccc(O)cc2)n1)c1ccc(Br)cc1 [compound 31] | – | – | 12.2 % of Ctl | 69.2 % of Ctl | –
COc1ccc(C(=O)NCCOCCOCCNc2nc(Nc3ccccc3)nc(Nc3ccc(O)cc3)n2)cc1 [compound 32] | – | – | 29.0 % of Ctl | 71.0 % of Ctl | –
O=C(NCCOCCOCCNc1nc(Nc2ccccc2)nc(Nc2ccc(O)cc2)n1)c1cccnc1 [compound 33] | – | – | 13.2 % of Ctl | 54.6 % of Ctl | –
O=C(NCCOCCOCCNc1nc(Nc2ccccc2)nc(Nc2ccc(O)cc2)n1)c1cccc(F)c1 [compound 34] | – | – | 25.8 % of Ctl | 81 % of Ctl | –
O=C(NCCOCCOCCNc1nc(Nc2ccccc2)nc(Nc2ccc(O)cc2)n1)c1cc(F)cc(F)c1 [compound 35] | – | – | 20.4 % of Ctl | 75.6 % of Ctl | –
O=C(NCCOCCOCCNc1nc(Nc2ccccc2)nc(Nc2ccc(O)cc2)n1)c1cccc(Br)c1 [compound 36] | – | – | 30.3 % of Ctl | 81.1 % of Ctl | –
COc1cccc(C(=O)NCCOCCOCCNc2nc(Nc3ccccc3)nc(Nc3ccc(O)cc3)n2)c1 [compound 37] | – | – | 32.4 % of Ctl | 79.0 % of Ctl | –
O=S(=O)(NCCOCCOCCNc1nc(Nc2ccccc2)nc(Nc2ccc(O)cc2)n1)c1ccccc1 [compound 38] | – | – | 22.8 % of Ctl | 63.0 % of Ctl | –
